The test system of assay [1] is Erisiphe polygoni. Briefly: Bean Powdery Mildew (seedling bean plants). The following applies: 240 h; 250 ppm spray; bean seedlings, inoculated 1 day later; relative to untreated check; read-out: % Control BPM (Bean Powdery Mildew). The format is in vivo. The procedure:
The compounds of the invention were tested for the control of the Bean Powdery Mildew organism Erisiphe polygoni. Seedling bean plants were sprayed with a 250 ppm solution of the test compound in acetone, water and a nonionic emulsifier. The sprayed plants were then inoculated 1 day later with organism. The plants were maintained for 10 days at temperatures of 68° F. at night with daytime temperatures of 72° to 80° F.; relative humidity was maintained at 40% to 60%. The percent disease control provided by a given test compound was based on the percent disease reduction relative to the untreated check plants.

Assay [2] has as its system Botrytis cinerea. Briefly: Mycelial Inhibition, Botrytis cinerea. The format is cell-based. The following applies: Standard DIFOLATAN; 500 ppm, 25° C., 24 hours; 0 = more than 1.6 micrograms/cm^2 required for 99% control. The procedure: (§1) The compounds of the present invention were evaluated for in-vitro fungicidal effectiveness by means of a Mycelial Inhibition test. This test is designed to measure the fungitoxic activity of fungicidal chemicals in terms of their degree of inhibition of mycelium growth. Each compound to be tested was dissolved in acetone to 500 ppm concentration. Paper strips were infused with the particular mycelium growth by covering the paper with a potato dextrose broth culture of mycelial suspension. The papers were then placed on potato dextrose agar plates and sprayed by means of a microsprayer with the fungicidal solution. The treated paper strips were incubated at 25° C. and the data is taken after 24 hours. Fungicidal activities are measured by a zone of inhibited mycelial growth from the center of the paper strip. The effectiveness of the compounds tested for fungicidal activity is reported in Table II (a) for those compounds which were effective in inhibiting mycelial growth.
(§2) The activity is reported in terms of [formula]
(§3) When more than 1.6 micrograms/cm^2 for 99% control of the fungus for the test compound is required, the activity is reported as 0.

For assay [3], the system named is Septoria apii. The format is in vivo. Conditions: 250 ppm spray; celery plants; relative to untreated check.
Assay [4] has as its system Rhizoctania solani. Briefly: Mycelial Inhibition, Rhizoctania solani. The format is cell-based. Conditions: Standard DIFOLATAN; 500 ppm, 25° C., 24 hours; 0 = more than 1.6 micrograms/cm^2 required for 99% control. The procedure:
as §1, §2, §3

Assay [5] concerns Plasmopara viticola. Briefly: Grape Downy Mildew Control (detached grape leaves). The format is in vivo. Conditions: in Vitis vinifera, 250 ppm spray, disease reduction relative to untreated check, read-out: % Control GDM (Grape Downy Mildew). The procedure: Grape Downy Mildew Control
The compounds of the invention were tested for the control of the Grape Downy Mildew Control organism Plasmopara viticola. Detached leaves, between 70 and 85 mm in diameter, of 7-week old Vitis vinifera cultivar Emperor grape seedlings were used as hosts. The leaves were sprayed with a 250 ppm solution of the test compound in acetone. The sprayed leaves were dried, inoculated with a spore suspension of the organism, placed in a humid environmental chamber and incubated at 66° to 68° F. and about 100% relative humidity. After incubation for 2 days, the plants were then held in a greenhouse 7 to 9 days; then the amount of disease control was determined. The percent disease control provided by a given test compound was based on the percent disease reduction relative to untreated check plants.

The test system of assay [6] is Uronyces phaseoli tipica. Briefly: Leaf Rust / Bean Rust (pinto beans). The assay is classed as in vivo. The following applies: 336 h, 250 ppm spray, about 14 days, relative to untreated check, read-out: % Control BR (Bean Rust). The procedure:
The Leaf Rust test was made using pinto beans. The pathogen was Uronyces phaseoli tipica. The pinto bean plants were sprayed with a 250 ppm solution of the test compound in an acetone-water mixture containing a nonionic emulsifier. The treated plants were inoculated thereafter with the pathogen and then incubated in an environmental chamber for approximately 20 hours at 100% relative humidity and a temperature of 68° to 70° F. The plants were then removed from the chamber, allowed to dry, and then maintained in a greenhouse at a 60% to 80% relative humidity. The rate of infection on the leaves was made after about 14 days. The percent disease control provided by a given test compound was based on the percent disease reduction relative to untreated check plants.

Assay [7] has as its system Phytophthora infestans. Briefly: whole plant or invertebrate. The following applies: in Solanum lycopersicum, 168 h, read-out: % Control TLB (Tomato Late Blight). The format is in vivo.
The test system of assay [8] is Piricularia oryzae. The assay is classed as in vivo. Conditions: 625 ppm spray; rice seedlings, inoculated 1 day later; relative to untreated check.
Assay [9] relates to Alternaria solani conidia. In words: Tomato Early Blight (tomato seedlings). The assay is classed as in vivo. Conditions: 250 ppm spray, inoculated 1 day later, relative to untreated check. The procedure:
Compounds of the invention were tested for the control of the Tomato Early Blight organism, Alternaria solani conidia. Tomato (variety Bonny Best) seedlings of 6 to 7 weeks old were used. The tomato plants were sprayed with a 250 ppm solution of the test compound in an acetone-and-water solution containing a small amount of a nonionic emulsifier. The sprayed plants were inoculated 1 day later with the organism, placed in the environmental chamber and incubated at 66° to 68° F. and 100% relative humidity for 24 hours. Following the incubation, the plants were maintained in a greenhouse for about 12 days. Percent diseases control was based on the percent disease development on untreated check plants.

For assay [10], the system named is Pythium ultimum. In words: Mycelial Inhibition, Pythium ultimum. The assay is classed as cell-based. Conditions: Standard DIFOLATAN; 500 ppm, 25° C., 24 hours; 0 = more than 1.6 micrograms/cm^2 required for 99% control. The procedure:
as §1, §2, §3

Structures are written as SMILES.

Turning to `CCCc1cc(=O)on1C(=O)c1ccc(Cl)cc1Cl` [Compound 3, 3-n-propyl-2-(2',4'-dichlorobenzoyl)-3-isoxazolin-5-one], the pest or weed control at 250 ppm was determined as 0% in assay [1], 0% in assay [5], 0% in [6] and 35% in assay [7]. In addition, the “Mycelial inhibition, Botrytis (% Standard)” value in assay [2] is reported as 0 % Standard. In addition, the “% Control CLB (Celery Late Blight)” value in [3] is 0%. In assay [4], the “Mycelial inhibition, Rhizoc. (% Standard)” value is reported as 0 % Standard. For the same molecule, the “% Control Rice Blast” value in assay [8] was 44%.

Turning to `Cc1cc(=O)on1C(=O)c1ccc(Cl)cc1[N+](=O)[O-]` [Compound 8], the pest or weed control at 250 ppm in assay [1] came to 0%; in assay [5], 6%; in assay [6], 0%; in assay [7], 56%. The “Mycelial inhibition, Botrytis (% Standard)” value in [2] was found to be 15 % Standard. Also, the “% Control CLB (Celery Late Blight)” value in assay [3] is recorded as 11%. Further, the “Mycelial inhibition, Rhizoc. (% Standard)” value in [4] is reported as 0 % Standard. Besides, in assay [9], the “% Control TEB (Tomato Early Blight)” value is 56%. Besides, the “Mycelial inhibition, Pythium (% Standard)” value in assay [10] came out at 0 % Standard. For the same molecule, the “% Control Rice Blast” value in assay [8] worked out at 0%.

With `Cc1cc(=O)on1C(=O)c1ccc(Cl)cc1` [Compound 6], the pest or weed control at 250 ppm was found to be 0% in [1], 16% in assay [5], 0% in [6] and 50% in assay [7]. Further, the “Mycelial inhibition, Botrytis (% Standard)” value in [2] was 6 % Standard. In assay [3], the “% Control CLB (Celery Late Blight)” value was 0%. The “Mycelial inhibition, Rhizoc. (% Standard)” value in [4] is on record as 33 % Standard. Besides, the “% Control TEB (Tomato Early Blight)” value in [9] worked out at 0%. For the same molecule, in assay [10], the “Mycelial inhibition, Pythium (% Standard)” value stood at 12 % Standard. Besides, the “% Control Rice Blast” value in assay [8] stood at 0%.

As to `CC(C)c1cc(=O)on1C(=O)c1ccc(Cl)cc1Cl` [Compound 5], the pest or weed control at 250 ppm in assay [1] is 0%; in assay [5], 3%; in assay [6] it was 0%; in [7] it was 69%. For the same molecule, the “Mycelial inhibition, Botrytis (% Standard)” value in [2] turned out to be 0 % Standard. For the same molecule, in assay [3], the “% Control CLB (Celery Late Blight)” value was 0%. For the same molecule, the “Mycelial inhibition, Rhizoc. (% Standard)” value in assay [4] came out at 23 % Standard. Besides, the “% Control Rice Blast” value in [8] was 83%.

For the molecule `Cc1cc(=O)on1C(=O)c1ccc([N+](=O)[O-])cc1Cl` [Compound 7], the pest or weed control at 250 ppm in [1] turned out to be 0%; in assay [5], 19%; in assay [6], 0%; in assay [7] it was 31%. Further, the “Mycelial inhibition, Botrytis (% Standard)” value in assay [2] was 0 % Standard. Further, the “% Control CLB (Celery Late Blight)” value in assay [3] is on record as 44%. Moreover, in assay [4], the “Mycelial inhibition, Rhizoc. (% Standard)” value came to 0 % Standard. The “% Control TEB (Tomato Early Blight)” value in assay [9] is listed as 0%. The “Mycelial inhibition, Pythium (% Standard)” value in assay [10] is on record as 0 % Standard. Also, the “% Control Rice Blast” value in assay [8] is 50%.

Regarding `Cc1cc(=O)on1C(=O)c1ccc(Cl)cc1Cl` [Compound 2, 3-methyl-2-(2',4'-dichlorobenzoyl)-3-isoxazolin-5-one], the pest or weed control at 250 ppm was determined as 21% in assay [1], 14% in assay [5], 0% in assay [6] and 97% in assay [7]. The “Mycelial inhibition, Botrytis (% Standard)” value in assay [2] was found to be 34 % Standard. Moreover, the “% Control CLB (Celery Late Blight)” value in assay [3] came out at 99%. For the same molecule, the “Mycelial inhibition, Rhizoc. (% Standard)” value in [4] is recorded as 0 % Standard. Moreover, the “% Control TEB (Tomato Early Blight)” value in [9] is recorded as 92%. Further, the “Mycelial inhibition, Pythium (% Standard)” value in [10] is reported as 0 % Standard.

For `Cc1cc(=O)on1C(=O)c1ccccc1` [Compound 4], the pest or weed control at 250 ppm was found to be 0% in assay [1], 6% in [5], 0% in [6] and 50% in assay [7]. The “Mycelial inhibition, Botrytis (% Standard)” value in assay [2] worked out at 0 % Standard. For the same molecule, the “% Control CLB (Celery Late Blight)” value in assay [3] is reported as 0%. In assay [4], the “Mycelial inhibition, Rhizoc. (% Standard)” value was found to be 0 % Standard. For the same molecule, the “% Control Rice Blast” value in assay [8] turned out to be 0%.

In the case of `Cc1cc(=O)on1C(=O)c1ccc([N+](=O)[O-])cc1` [Compound 1, 3-methyl-2-(4'-nitrobenzoyl)-3-isoxazolin-5-one], the pest or weed control at 250 ppm in assay [1] amounted to 0%; in assay [5] it was 21%; in assay [6], 0%; in [7], 0%. Further, the “Mycelial inhibition, Botrytis (% Standard)” value in [2] is reported as 0 % Standard. The “Mycelial inhibition, Rhizoc. (% Standard)” value in assay [4] was found to be 0 % Standard. Also, the “% Control TEB (Tomato Early Blight)” value in assay [9] was found to be 0%. Also, the “Mycelial inhibition, Pythium (% Standard)” value in [10] was 0 % Standard.

For the origin of these results see patent US4504486A (priority 1982, dated 1985).
